How the values were obtained:
NAD+ [1] = assay: Increasing the level of NAD+ by controlled-release NR microsphere 4, blood NAD+ by HPLC (Example 6); assay type: in vivo; details: SD rats, intragastric; for NAD+ level in blood: 100 mg/kg NR and/or 10 mg/kg apigenin
Protocol: (§1) 20 SD rats weighing about 200 g were purchased, and an experiment was carried out after one week of adaptive feeding. The 20 rats were divided into 5 groups, 4 rats per group (half male and half female). The rats in group 1 were not treated, the rats in group 2 were administered intragastrically with 100 mg/kg of NR, the rats in group 3 were administered intragastrically with 10 mg/kg of apigenin, the rats in group 4 were administered intragastrically with 100 mg/kg of NR and 10 mg/kg of apigenin at the same time, and the rats in group 5 were administered intragastrically with the controlled-release NR microspheres 4 containing 100 mg/kg of NR and 10 mg/kg of apigenin.
Blood was collected from the rat in each groups via the tail vein at time points of 2 h, 2.5 h, 3 h, 3.5 h, 4 h, 4.5 h, 5 h, 5.5 h, and 6 h, respectively, after intragastric administration of corresponding microspheres, and 0.1 mL of blood was collected each time by each rat. After the vein blood collected from each rat at each time point was treated, the NAD+ level in the blood sample was tested by high performance liquid chromatography (HPLC). The test results of 4 rats in each group were averaged.

NAD+ [2] = assay: Increasing the level of NAD+ by controlled-release NR microspheres 4, 7, 8, blood NAD+ by HPLC (Example 12); assay type: in vivo; details: SD rats, intragastric; for Content of NAD+ in blood: 100 mg/kg NR and/or 10 mg/kg apigenin
Protocol: as §1, with “28 SD rats” for “20 SD rats”, “feeding. The 28 rats were” for “feeding. The 20 rats were”, “divided into 7 groups, 4” for “divided into 5 groups, 4”, “same time, the rats” for “same time, and the rats”, “mg/kg of apigenin, the rats in group 6 were administered intragastrically with the controlled-release NR microspheres 7 containing 100 mg/kg of NR and 10 mg/kg of apigenin, and the rats in group 7 were administered intragastrically with the controlled-release NR microspheres 8 containing 100 mg/kg of NR and 10 mg/kg of apigenin.” for “mg/kg of apigenin.”
Blood was collected from each rat in the groups via the tail vein at time points of 2 h, 2.5 h, 3 h, 3.5 h, 4 h, 4.5 h, 5 h, 5.5 h, and 6 h, respectively, after intragastric administration of corresponding microspheres, and 0.1 mL of blood was collected each time by each rat. After the vein blood collected from the rat in each groups at each time point was treated, the NAD+ level in the blood sample was tested by high performance liquid chromatography (HPLC). The test results of 4 rats in each group were averaged. […] There are time differences between a peak of the releasing of apigenin and a peak of the releasing of NR in the controlled-release […], the controlled-release NR microsphere 7, and the controlled-release NR microsphere 8 that are prepared based on different ratios of apigenin (the CD38 inhibitor) to NR, and the time differences between a peak of the releasing of apigenin and a peak of the releasing of NR in the three microspheres are consistent and are all 0.5-1.5 h.

[3] = in vivo; cited from earlier work
NAD+ [4] = assay: Increasing the level of NAD+ by controlled-release NR microspheres 4, 11, 12, blood NAD+ by HPLC (Example 18); assay type: in vivo; details: SD rats, intragastric; for NAD+ level in blood: 100 mg/kg NR and/or 10 mg/kg apigenin
Protocol: as §1, with “28 SD” for “20 SD”, “The 28” for “The 20”, “into 7” for “into 5”, “of apigenin,” for “of apigenin at the same time, and”, “microspheres 2 containing 100 mg/kg of NR and 10 mg/kg of apigenin, the rats in group 6 were administered intragastrically with the controlled-release NR microspheres 11 containing 100 mg/kg of NR and 10 mg/kg of apigenin, and the rats in group 7 were administered intragastrically with the controlled-release NR microspheres 12” for “microspheres 4”
Blood was collected from rat the in each groups via the tail vein at time points of 2 h, 2.5 h, 3 h, 3.5 h, 4 h, 4.5 h, 5 h, 5.5 h, and 6 h, respectively, after intragastric administration of corresponding microspheres, and 0.1 mL of blood was collected each time by each rat. After the vein blood collected from each rat in the groups at each time point was treated, the NAD+ level in the blood sample was tested by high performance liquid chromatography (HPLC). The test results of 4 rats in each group were averaged. […] There are time differences between a peak of the releasing of apigenin and a peak of the releasing NR in the controlled-release NR microsphere 4, the controlled-release NR microsphere 11, and the controlled-release NR microsphere 12 that are prepared based on different mass ratios of apigenin (the CD38 inhibitor) to the excipient and different mass ratios of NR to the excipient, and the time differences between a peak of the releasing of apigenin and a peak of the releasing NR in the three microspheres are consistent and are all about 0.5 h to 1.5 h.

SMILES	level of NAD+ in the rat compared with the blank group (in words) (NAD+ [1])	NAD+ level in blood (NAD+ [1]; 2 h) [µM]	NAD+ level in blood (NAD+ [1]; 2.5 h) [µM]	NAD+ level in blood (NAD+ [1]; 3 h) [µM]	NAD+ level in blood (NAD+ [1]; 3.5 h) [µM]	NAD+ level in blood (NAD+ [1]; 4 h) [µM]	NAD+ level in blood (NAD+ [1]; 4.5 h) [µM]	NAD+ level in blood (NAD+ [1]; 5 h) [µM]	NAD+ level in blood (NAD+ [1]; 5.5 h) [µM]	NAD+ level in blood (NAD+ [1]; 6 h) [µM]	level of NAD+ in the rat compared with the blank group (in words) (NAD+ [2])	Content of NAD+ in blood (NAD+ [2]; 2 h) [µM]	Content of NAD+ in blood (NAD+ [2]; 2.5 h) [µM]	Content of NAD+ in blood (NAD+ [2]; 3 h) [µM]	Content of NAD+ in blood (NAD+ [2]; 3.5 h) [µM]	Content of NAD+ in blood (NAD+ [2]; 4 h) [µM]	Content of NAD+ in blood (NAD+ [2]; 4.5 h) [µM]	Content of NAD+ in blood (NAD+ [2]; 5 h) [µM]	Content of NAD+ in blood (NAD+ [2]; 5.5 h) [µM]	Content of NAD+ in blood (NAD+ [2]; 6 h) [µM]	other results
O=c1cc(-c2ccc(O)cc2)oc2cc(O)cc(O)c12 [Apigenin, apigenin]	can increase the level of NAD+ in the rat	141	148	176	171	160	156	143	144	138	can increase the level of NAD+ in the rat	144	153	184	175	163	159	146	139	141	Metabolic half-life [3]: 91.8 h; level of NAD+ in the rat compared with the blank group (in words) (NAD+ [4]): can increase the level of NAD+ in the rat; NAD+ level in blood (NAD+ [4]; 2 h): 132 µM; NAD+ level in blood (NAD+ [4]; 2.5 h): 150 µM; NAD+ level in blood (NAD+ [4]; 3 h): 179 µM; NAD+ level in blood (NAD+ [4]; 3.5 h): 173 µM; NAD+ level in blood (NAD+ [4]; 4 h): 161 µM; NAD+ level in blood (NAD+ [4]; 4.5 h): 157 µM; NAD+ level in blood (NAD+ [4]; 5 h): 166 µM; NAD+ level in blood (NAD+ [4]; 5.5 h): 138 µM; NAD+ level in blood (NAD+ [4]; 6 h): 140 µM
NC(=O)c1ccc[n+]([C@@H]2O[C@H](CO)[C@@H](O)[C@H]2O)c1 [NR, nicotinamide riboside]	can increase the level of NAD+ in the rat	131	196	181	163	142	154	159	139	141	can increase the level of NAD+ in the rat	128	200	180	159	162	157	149	142	134	level of NAD+ in the rat compared with the blank group (in words) (NAD+ [4]): can increase the level of NAD+ in the rat; NAD+ level in blood (NAD+ [4]; 2 h): 142 µM; NAD+ level in blood (NAD+ [4]; 2.5 h): 203 µM; NAD+ level in blood (NAD+ [4]; 3 h): 188 µM; NAD+ level in blood (NAD+ [4]; 3.5 h): 154 µM; NAD+ level in blood (NAD+ [4]; 4 h): 167 µM; NAD+ level in blood (NAD+ [4]; 4.5 h): 152 µM; NAD+ level in blood (NAD+ [4]; 5 h): 145 µM; NAD+ level in blood (NAD+ [4]; 5.5 h): 144 µM; NAD+ level in blood (NAD+ [4]; 6 h): 135 µM
